Laboratory results: ChEMBL document CHEMBL3585339, “Synthesis, biological activities and pharmacokinetic properties of new fluorinated derivatives of selective PDE4D inhibitors” (Bioorg Med Chem, 2015)
Active and inactive are the calls of the source. The rule behind the calls is not given here.

Key:
[1] = molecular target: T1, 3',5'-cyclic-AMP phosphodiesterase 4D (Homo sapiens, UniProt Q08499); assay: Inhibition of human recombinant PDE4D3 expressed in baculoviral system using cAMP as substrate by fluorescence polarization assay
[2] = molecular target: 3',5'-cyclic-AMP phosphodiesterase 4A (Homo sapiens) (UniProt P27815); assay: Inhibition of human recombinant PDE4A4 expressed in baculoviral system using cAMP as substrate at 10 uM by fluorescence polarization assay relative to control
[3] = Cytotoxicity against human HTLA-230 cells at 100 uM after 24 hrs by lactate dehydrogenase release assay (reference value: 0.67 +/- 0.24%); format: cell-based; settings: htla-230, 24 h
[4] = molecular target: T1, 3',5'-cyclic-AMP phosphodiesterase 4D; assay: Inhibition of human recombinant PDE4D3 expressed in baculoviral system using cAMP as substrate at 10 uM by fluorescence polarization assay relative to control
[5] = molecular target: 3',5'-cyclic-AMP phosphodiesterase 4B (Homo sapiens) (UniProt Q07343); assay: Inhibition of human recombinant PDE4B2 expressed in baculoviral system using cAMP as substrate at 10 uM by fluorescence polarization assay relative to control
[6] = Genotoxicity in human HTLA-230 cells assessed as gamma-H2AX production at 100 uM after 24 hrs by Western blot analysis; format: toxicity, cell-based; settings: htla-230, 24 h
[7] = Cytotoxicity against human HTLA-230 cells at 10 uM after 24 hrs by lactate dehydrogenase release assay (reference value: 0.67 +/- 0.24%); format: cell-based; settings: htla-230, 24 h
[8] = Plasma concentration in BALB/c mouse at 10 mg/kg, sc measured at 0.67 hrs by LC-MS/MS analysis; format: ADME, organism-based
[9] = Plasma concentration in BALB/c mouse at 10 mg/kg, sc measured at 0.33 hrs by LC-MS/MS analysis; format: ADME, organism-based
[10] = Ratio of AUC (0 to t) in BALB/c mouse brain to AUC (0 to t) in BALB/c mouse plasma at 10 mg/kg, sc by LC-MS/MS analysis; format: ADME, organism-based; settings: read-out: Ratio AUC
[11] = tested on: Brain; assay: AUC (0 to t) in BALB/c mouse brain at 10 mg/kg, sc by LC-MS/MS analysis; format: ADME, organism-based; settings: in vivo
[12] = Plasma concentration in BALB/c mouse at 10 mg/kg, sc measured at 1 hr by LC-MS/MS analysis; format: ADME, organism-based
[13] = tested on: Mus musculus; assay: Toxicity in mouse assessed as sedative effect by measuring prolongation of immobility time at 10 mg/kg, po measured over 60 mins by open-field test; format: organism-based; settings: in vivo, 1 h
[14] = Plasma concentration in BALB/c mouse at 10 mg/kg, sc measured at 3 hrs by LC-MS/MS analysis; format: ADME, organism-based
[15] = Plasma concentration in BALB/c mouse at 10 mg/kg, sc measured at 0.17 hrs by LC-MS/MS analysis; format: ADME, organism-based
[16] = AUC (0 to t) in BALB/c mouse plasma at 10 mg/kg, sc by LC-MS/MS analysis; format: ADME, organism-based
[17] = Drug uptake in BALB/c mouse brain at 10 mg/kg, sc measured at 0.33 hrs by LC-MS/MS analysis; format: ADME, organism-based; settings: read-out: Drug uptake
[18] = Drug uptake in BALB/c mouse brain at 10 mg/kg, sc measured at 3 hrs by LC-MS/MS analysis; format: ADME, organism-based; settings: read-out: Drug uptake
[19] = Tmax in BALB/c mouse plasma at 10 mg/kg, sc by LC-MS/MS analysis; format: ADME, organism-based
[20] = Drug uptake in BALB/c mouse brain at 10 mg/kg, sc measured at 1 hr by LC-MS/MS analysis; format: ADME, organism-based; settings: read-out: Drug uptake
[21] = Effect on cAMP level in human HTLA-230 cells at 100 uM after 10 mins by enzyme immunoassay; format: ADME, cell-based; settings: htla-230, 10 min
[22] = tested on: Mus musculus; assay: Toxicity in mouse assessed as sedative effect by measuring reduction of total distance traveled at 10 mg/kg, po measured over 60 mins by open-field test; format: organism-based; settings: in vivo, 1 h
[23] = Cmax in BALB/c mouse brain at 10 mg/kg, sc by LC-MS/MS analysis; format: ADME, organism-based; set-up: dose 10 mg/kg, route subcutaneous
[24] = Drug uptake in BALB/c mouse brain at 10 mg/kg, sc measured at 0.17 hrs by LC-MS/MS analysis; format: ADME, organism-based; settings: read-out: Drug uptake
[25] = Elimination half life in BALB/c mouse brain at 10 mg/kg, sc by LC-MS/MS analysis; format: ADME, organism-based; settings: read-out: beta t1/2 (converted)
[26] = Drug uptake in BALB/c mouse brain at 10 mg/kg, sc measured at 0.67 hrs by LC-MS/MS analysis; format: ADME, organism-based; settings: read-out: Drug uptake
[27] = Cmax in BALB/c mouse plasma at 10 mg/kg, sc by LC-MS/MS analysis; format: ADME, organism-based; set-up: dose 10 mg/kg, route subcutaneous
[28] = Elimination half life in BALB/c mouse plasma at 10 mg/kg, sc by LC-MS/MS analysis; format: ADME, organism-based; settings: read-out: beta t1/2 (converted)
[29] = Plasma concentration in BALB/c mouse at 10 mg/kg, sc measured at 2 hrs by LC-MS/MS analysis; format: ADME, organism-based
[30] = molecular target: T1, 3',5'-cyclic-AMP phosphodiesterase 4D; assay: Inhibition of PDE4D in human HTLA-230 cells assessed as increase in forskolin-induced cAMP accumulation at 100 uM pretreated for 10 mins followed by forskolin induction measured after 20 mins by enzyme immunoassay; format: cell-based
[31] = Drug uptake in BALB/c mouse brain at 10 mg/kg, sc measured at 2 hrs by LC-MS/MS analysis; format: ADME, organism-based; settings: read-out: Drug uptake
[32] = Tmax in BALB/c mouse brain at 10 mg/kg, sc by LC-MS/MS analysis; format: ADME, organism-based
[33] = Plasma concentration in BALB/c mouse at 10 mg/kg, sc measured at 5 hrs by LC-MS/MS analysis; format: ADME, organism-based
[34] = Drug uptake in BALB/c mouse brain at 10 mg/kg, sc measured at 5 hrs by LC-MS/MS analysis; format: ADME, organism-based; settings: read-out: Drug uptake

Chain of 3',5'-cyclic-AMP phosphodiesterase 4B (Homo sapiens) (Q07343 whole entry): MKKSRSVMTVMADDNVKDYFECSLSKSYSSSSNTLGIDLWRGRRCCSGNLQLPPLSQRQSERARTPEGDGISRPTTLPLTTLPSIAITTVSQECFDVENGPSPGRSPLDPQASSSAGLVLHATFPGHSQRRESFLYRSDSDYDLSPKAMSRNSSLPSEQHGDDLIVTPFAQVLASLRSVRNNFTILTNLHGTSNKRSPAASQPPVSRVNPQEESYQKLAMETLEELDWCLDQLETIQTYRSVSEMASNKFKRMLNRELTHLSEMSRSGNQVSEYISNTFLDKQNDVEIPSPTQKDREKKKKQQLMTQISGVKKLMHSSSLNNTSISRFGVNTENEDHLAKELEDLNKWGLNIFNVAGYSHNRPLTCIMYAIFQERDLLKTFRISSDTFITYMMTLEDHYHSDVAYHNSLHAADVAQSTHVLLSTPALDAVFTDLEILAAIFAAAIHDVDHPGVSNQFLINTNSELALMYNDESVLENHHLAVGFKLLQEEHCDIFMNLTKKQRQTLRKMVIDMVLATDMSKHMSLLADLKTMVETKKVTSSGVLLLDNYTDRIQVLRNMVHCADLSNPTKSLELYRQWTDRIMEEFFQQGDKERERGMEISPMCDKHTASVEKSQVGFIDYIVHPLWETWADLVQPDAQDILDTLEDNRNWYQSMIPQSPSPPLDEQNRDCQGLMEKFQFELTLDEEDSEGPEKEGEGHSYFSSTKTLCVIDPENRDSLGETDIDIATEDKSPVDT
Chain of 3',5'-cyclic-AMP phosphodiesterase 4A (Homo sapiens) (P27815 whole entry): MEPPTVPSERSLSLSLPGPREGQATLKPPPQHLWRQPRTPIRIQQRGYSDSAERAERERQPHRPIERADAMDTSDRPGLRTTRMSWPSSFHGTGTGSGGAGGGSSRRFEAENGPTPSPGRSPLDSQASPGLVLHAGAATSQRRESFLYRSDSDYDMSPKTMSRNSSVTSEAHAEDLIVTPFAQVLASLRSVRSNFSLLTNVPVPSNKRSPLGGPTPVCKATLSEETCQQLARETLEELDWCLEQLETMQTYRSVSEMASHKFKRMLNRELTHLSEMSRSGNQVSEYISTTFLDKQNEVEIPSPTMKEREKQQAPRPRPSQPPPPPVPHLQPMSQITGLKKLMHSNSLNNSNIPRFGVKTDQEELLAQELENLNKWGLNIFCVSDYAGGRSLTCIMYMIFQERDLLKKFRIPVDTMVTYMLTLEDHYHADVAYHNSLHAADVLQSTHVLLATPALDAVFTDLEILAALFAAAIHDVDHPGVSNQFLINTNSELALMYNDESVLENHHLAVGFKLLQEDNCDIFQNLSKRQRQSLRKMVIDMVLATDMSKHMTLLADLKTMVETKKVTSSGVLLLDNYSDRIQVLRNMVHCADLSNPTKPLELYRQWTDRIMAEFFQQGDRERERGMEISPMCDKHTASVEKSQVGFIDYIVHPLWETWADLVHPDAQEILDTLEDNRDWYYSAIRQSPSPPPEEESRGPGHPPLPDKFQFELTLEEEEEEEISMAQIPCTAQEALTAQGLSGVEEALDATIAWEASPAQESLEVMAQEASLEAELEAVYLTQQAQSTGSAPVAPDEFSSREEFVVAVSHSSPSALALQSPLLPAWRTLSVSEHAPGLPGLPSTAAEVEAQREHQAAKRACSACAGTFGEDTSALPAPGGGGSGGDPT
T1 sequence (Q08499 whole entry): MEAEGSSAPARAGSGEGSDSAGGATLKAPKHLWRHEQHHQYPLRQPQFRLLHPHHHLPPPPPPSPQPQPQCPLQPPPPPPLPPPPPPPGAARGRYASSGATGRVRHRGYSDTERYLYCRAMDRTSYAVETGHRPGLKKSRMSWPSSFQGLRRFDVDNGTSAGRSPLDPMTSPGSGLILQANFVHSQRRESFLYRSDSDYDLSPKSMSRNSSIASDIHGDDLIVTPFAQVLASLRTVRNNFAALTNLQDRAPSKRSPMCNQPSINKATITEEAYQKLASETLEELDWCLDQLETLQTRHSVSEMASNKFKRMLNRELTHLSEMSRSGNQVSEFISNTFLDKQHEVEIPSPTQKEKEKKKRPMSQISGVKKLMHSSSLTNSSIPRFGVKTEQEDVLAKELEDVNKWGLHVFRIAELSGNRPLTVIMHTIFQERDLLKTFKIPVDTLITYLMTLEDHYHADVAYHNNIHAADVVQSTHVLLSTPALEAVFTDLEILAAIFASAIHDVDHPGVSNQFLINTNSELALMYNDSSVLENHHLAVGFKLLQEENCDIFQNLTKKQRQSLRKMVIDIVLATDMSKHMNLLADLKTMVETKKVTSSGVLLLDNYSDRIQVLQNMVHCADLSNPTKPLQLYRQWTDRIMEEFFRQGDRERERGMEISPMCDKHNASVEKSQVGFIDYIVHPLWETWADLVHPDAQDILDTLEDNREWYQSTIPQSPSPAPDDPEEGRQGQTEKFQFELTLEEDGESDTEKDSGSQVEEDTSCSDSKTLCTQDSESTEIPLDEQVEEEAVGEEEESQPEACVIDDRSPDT

Compound CC1CN(C(=O)CCO/N=C/c2ccc(OC(F)F)c(OC3CCCC3)c2)CC(C)O1 (stereo not given) has an IC50 [1] of 470 nM, an inhibition [2] of 34% and an Activity [3] of 0.01%. The inhibition [4] was 63%, the inhibition [5] was 37% and the Activity [6] was “Non-toxic”.

Compound OC1CCN(CC(O)CO/N=C/c2ccc(OC(F)F)c(OC3CCCC3)c2)CC1 (stereo not given) has an IC50 [1] of 2540 nM, an inhibition [2] of 15% and an Activity [3] of 31.37%. It also gave an inhibition [4] of 51%, an Activity [7] of 3.42% and an inhibition [5] of 15%.

With COc1cc([C@@H]2c3cc4c(cc3[C@@H](O[C@@H]3O[C@@H]5CO[C@@H](C)O[C@H]5[C@H](O)[C@H]3O)[C@H]3COC(=O)[C@H]23)OCO4)cc(OC)c1O [ETOPOSIDE] the Activity [6] was “Toxic”.

COc1ccc(/C=N/OCC(=O)N2CC(C)OC(C)C2)cc1OC1CCCC1 (stereo not given) showed a concentration at 0.67 h [8] of 343 ng/mL, a concentration at 0.33 h [9] of 1310 ng/mL and a Kp [10] of 0.358. For the same compound, the AUCt [11] was 812 ng·h/g, the concentration at 1 h [12] was 32.8 ng/mL and the Activity [3] was 0.14%. For the same compound, the Activity [13] was “Non-toxic”, the concentration at 3 h [14] was 2.18 ng/mL and the concentration at 0.17 h [15] was 4410 ng/mL. The AUC(0-t) [16] was 1890 ng·h/mL, the concentration at 0.33 h [17] was 396 ng/g and the concentration at 3 h [18] was 1.19 ng/g. The Tmax [19] was 10.2 min, the concentration at 1 h [20] was 3.29 ng/g and the Activity [21] was “Non-toxic”. For the same compound, the Activity [22] was “Non-toxic”, the Cmax [23] was 936 ng/g and the concentration at 0.17 h [24] was 1570 ng/g. It also gave a half-life [25] of 32.4 min, a concentration at 0.67 h [26] of 84.2 ng/g and a Cmax [27] of 2160 ng/mL. The half-life [28] was 49.2 min, the concentration at 2 h [29] was 20 ng/mL and the Activity [6] was “Non-toxic”. For the same compound, the inhibition [30] was “Active”, the concentration at 2 h [31] was 2.21 ng/g and the Tmax [32] was 10.2 min. The concentration at 5 h [33] was 10.4 ng/mL.

In the case of CN1C(=O)CN=C(c2ccccc2)c2cc(Cl)ccc21 [DIAZEPAM], the Activity [13] is reported as “Toxic” and the Activity [22] is reported as “Toxic”.

OC(CO/N=C/c1ccc(OC(F)F)c(OC2CCCC2)c1)CN1CCOCC1 (stereo not given) showed an IC50 [1] of 1490 nM, an inhibition [2] of 41% and an Activity [3] of 0.21%. For the same compound, the inhibition [4] was 83%, the inhibition [5] was 43% and the Activity [6] was “Non-toxic”.

For COc1ccc(/C=N/OCC(O)CN2CC(C)OC(C)C2)cc1OC1CCCC1 (stereo not given), the Activity [13] was “Non-toxic” and the Activity [22] was “Non-toxic”.

Work on CC1CN(NCC(O)CO/N=C/c2ccc(OC(F)F)c(OC3CCCC3)c2)CC(C)O1 (stereo not given) yielded an IC50 [1] of 190 nM, an inhibition [2] of 58% and an Activity [3] of 1.54%. The inhibition [4] was 87% and the inhibition [5] was 51%.

O=C(CO/N=C/c1ccc(OC(F)F)c(OC2CCCC2)c1)N1CCOCC1 showed an IC50 [1] of 1120 nM, an inhibition [2] of 36% and an Activity [3] of 2.06%. It also gave an inhibition [4] of 63% and an inhibition [5] of 31%.

With COc1ccc(C2CNC(=O)C2)cc1OC1CCCC1 (stereo not given) [ROLIPRAM] the Activity [13] was “Toxic” and the Activity [22] was “Toxic”.

With CC1CN(C(=O)CO/N=C/c2ccc(OC(F)F)c(OC3CCCC3)c2)CC(C)O1 (stereo not given) the concentration at 0.67 h [8] was 1090 ng/mL, the IC50 [1] was 4840 nM and the inhibition [2] was 32%. It also gave a concentration at 0.33 h [9] of 1740 ng/mL, a Kp [10] of 0.429 and an AUCt [11] of 391 ng·h/g. For the same compound, the concentration at 1 h [12] was 657 ng/mL, the Activity [3] was 0.01% and the Activity [13] was “Non-toxic”. The concentration at 3 h [14] was 11.6 ng/mL, the concentration at 0.17 h [15] was 2160 ng/mL and the AUC(0-t) [16] was 1220 ng·h/mL. For the same compound, the concentration at 0.33 h [17] was 790 ng/g, the inhibition [4] was 74% and the concentration at 3 h [18] was 5.45 ng/g. The inhibition [5] was 29%, the Tmax [19] was 10.2 min and the concentration at 1 h [20] was 303 ng/g. For the same compound, the Activity [21] was “Non-toxic”, the Activity [22] was “Non-toxic” and the Cmax [23] was 1570 ng/g. It also gave a concentration at 0.17 h [24] of 936 ng/g, a half-life [25] of 81.6 min and a concentration at 0.67 h [26] of 453 ng/g. For the same compound, the concentration at 5 h [34] was 2.94 ng/g, the Cmax [27] was 4410 ng/mL and the half-life [28] was 42 min. The concentration at 2 h [29] was 217 ng/mL, the Activity [6] was “Non-toxic” and the inhibition [30] was “Active”. It also gave a concentration at 2 h [31] of 96 ng/g, a Tmax [32] of 10.2 min and a concentration at 5 h [33] of 67.2 ng/mL.

For CC1CN(CC(O)CO/N=C/c2ccc(OC(F)F)c(OC3CCCC3)c2)CC(C)O1 (stereo not given), the IC50 [1] was 190 nM, the inhibition [2] was 68% and the Activity [3] was 8.83%. For the same compound, the Activity [13] was “Toxic”, the inhibition [4] was 84% and the Activity [7] was 0.01%. For the same compound, the inhibition [5] was 68% and the Activity [22] was “Toxic”.

O=C(CO/N=C/c1ccc(OC(F)F)c(OC2CCCC2)c1)N1CCC(O)CC1 gave an IC50 [1] of 2630 nM, an inhibition [2] of 28% and an Activity [3] of 4.62%. It also gave an inhibition [4] of 60%, an Activity [7] of 0.01% and an inhibition [5] of 26%.
